# Assay results as given in article PMC8318231, “Rate-of-Kill (RoK) assays to triage large compound sets for Chagas disease drug discovery: Application to GSK Chagas Box” (PLoS Neglected Tropical Diseases, 2021).
# Columns and labels:
# [1] = system: T. cruzi intracellular amastigotes in H9c2 cells; test: Rate-of-Kill (RoK) high-content imaging assay, amastigotes per cell (AM/CELL) and curve descriptors; assay type: cell-based, Trypanosoma cruzi; parameters: key to ME_24h / ME_48h / ME_72h: % reduction in parasite burden (cidal response); t50pct_MCC50 / t50pct_Cmax: unit not given here; settings: for ME_24h: 24h; for ME_48h: 48h; for ME_72h: 72h; for AM/CELL NORM: sheet figure 4 A; for tlag_Cmax / t50pct_Cmax / t50%_Cmax: at Cmax; for ME_24h (%): maximum effect at 24 h; for ME_24h (%) / ME_48h (%) / ME_72h (%): RoK assay; for ME_48h (%): maximum effect at 48 h; for ME_72h (%): maximum effect at 72 h; for ME 24h (maximum effect at 24 hours, intracellular amastigotes): maximum percentage of parasite burden reduction reached by any concentration
# Outline: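 Readouts at each time point are amastigotes per cell and host nuclei count (cytotoxicity), from DRAQ5 high-content imaging. Infection: trypomastigotes on H9c2 at MOI 8 for 18 h. Dosing was 5 μM single point or 11 points, 1/3 steps from 50 μM. Effect scaled between 4 h infected and uninfected controls.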
# TcCYP51 = settings: formerly reported; cited from earlier work
# [2] = system: T. cruzi Tulahuen trypomastigotes; test: T. cruzi trypomastigote assay (Cell Titer-Glo viability, ATP luminescence); assay type: cell-based, Trypanosoma cruzi; settings: for Trypomastigotes pIC50 48 hours: 48 hours incubation; for Trypomastigotes pIC50 48 hours / Trypomastigotes pIC50 72 hours: pIC50 = -log10 IC50 in molar units; for Trypomastigotes pIC50 72 hours: 72 hours incubation; for 72 pIC50 (trypomastigotes, raw data of Fig 1D): 72 hours, plotted values, censored values given without sign; for 48 pIC50 / 72 pIC50: trypomastigote assay; for 48 pIC50: 48 h; for 72 pIC50: 72 h
# Outline: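 Compounds were tested in dose response or once at a final 5 μM against 5 × 10^4 trypomastigotes per well (DMEM, 2% FBS), collected on days 5–8 from LLC-MK2 infected cultures. ATP luminescence via CellTiter-Glo reports live parasites; DMSO defines 0% and cell-free wells 100% effect.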
compound,measurement,setting,value
Cc1c(C(C)NC(=O)Nc2cccc(Cl)c2)sc2ncnn12 (stereo not drawn) [TCMDC-143405],ME_24h,[1]; figure 5,-289.196
same,ME_48h,[1]; figure 5,-32.4517
same,ME_72h,[1]; figure 5,41.1216
same,MCCE,[1]; RoK curve descriptor,0.07 µM
same,AM/CELL NORM,[1]; Time 4,-4.394
same,AM/CELL NORM,[1]; Time 24,-289.196
same,AM/CELL NORM,[1]; Time 48,-32.4517
same,AM/CELL NORM,[1]; Time 72,-0.1706
same,tlag_Cmax,[1],24.0 h
same,t50pct_Cmax,[1]; figure 5,72
same,tlag_Cmax,[1]; figure 5,24
same,t50pct_MCC50,"[1]; at MCC50, figure 5",72
same,tlag_MCC50,"[1]; at MCC50, figure 5",72
same,MCC50,[1]; figure 5,50 µM
same,MCCE,[1]; figure 5,0.06859
same,ME_24h (%),[1],-289.2%
same,ME_48h (%),[1],-32.5%
same,ME_72h (%),[1],41.1%
same,"ME 24h (maximum effect at 24 hours, intracellular amastigotes)",[1],-289.196%
same,CYP51 pIC50,TcCYP51,6.9
same,Trypomastigotes pIC50 48 hours,[2],< 4.3
same,Trypomastigotes pIC50 72 hours,[2],< 4.3
same,"72 pIC50 (trypomastigotes, raw data of Fig 1D)",[2],< 4.3
same,48 pIC50,[2]; figure 1A,< 4.3
same,72 pIC50,[2]; figure 1A,< 4.3
same,72 pIC50,[2]; figure 1B,< 4.3
Cc1c(C#N)c([N+](=O)[O-])nn1Cc1cccc(Cl)c1Cl [TCMDC-143152],ME_24h,[1]; figure 5,56.9761
same,ME_48h,[1]; figure 5,166.798
same,ME_72h,[1]; figure 5,160.217
same,MCC50,[1]; RoK curve descriptor,1.9 µM
same,MCCE,[1]; RoK curve descriptor,0.6 µM
same,AM/CELL NORM,[1]; Time 4,5.197
same,AM/CELL NORM,[1]; Time 24,56.9761
same,AM/CELL NORM,[1]; Time 48,166.798
same,AM/CELL NORM,[1]; Time 72,160.217
same,t50%_Cmax,[1],24.0 h
same,tlag_Cmax,[1],4.0 h
same,t50pct_Cmax,[1]; figure 5,24
same,tlag_Cmax,[1]; figure 5,4
same,t50%_MCC50,[1]; at MCC50,48.0 h
same,tlag_MCC50,[1]; at MCC50,4.0 h
same,t50pct_MCC50,"[1]; at MCC50, figure 5",48
same,tlag_MCC50,"[1]; at MCC50, figure 5",4
same,MCCE,[1]; figure 5,0.6173
same,MCC50,"[1]; figure 5, in µM",1.852
same,ME_24h (%),[1],57.0%
same,ME_48h (%),[1],166.8%
same,ME_72h (%),[1],160.2%
same,"ME 24h (maximum effect at 24 hours, intracellular amastigotes)",[1],56.9761%
same,CYP51 pIC50,TcCYP51,< 4
same,Trypomastigotes pIC50 48 hours,[2],6.1
same,Trypomastigotes pIC50 72 hours,[2],6.1
same,"72 pIC50 (trypomastigotes, raw data of Fig 1D)",[2],6.1
same,48 pIC50,[2]; figure 1A,6.1
same,72 pIC50,[2]; figure 1A,6.1
same,72 pIC50,[2]; figure 1B,6.1
CN(C)CCOc1ccc(N2CCN(S(=O)(=O)c3ccc(Cl)cc3)CC2)cc1 [TCMDC-143622],ME_24h,[1]; figure 5,11.982
same,ME_48h,[1]; figure 5,63.0909
same,ME_72h,[1]; figure 5,72.2951
same,MCC50,[1]; RoK curve descriptor,1.9 µM
same,MCCE,[1]; RoK curve descriptor,1.9 µM
same,AM/CELL NORM,[1]; Time 4,6.264
same,AM/CELL NORM,[1]; Time 24,11.982
same,AM/CELL NORM,[1]; Time 48,63.0909
same,AM/CELL NORM,[1]; Time 72,55.0876
same,t50%_Cmax,[1],48.0 h
same,tlag_Cmax,[1],4.0 h
same,t50pct_Cmax,[1]; figure 5,48
same,tlag_Cmax,[1]; figure 5,4
same,t50%_MCC50,[1]; at MCC50,72.0 h
same,tlag_MCC50,[1]; at MCC50,24.0 h
same,t50pct_MCC50,"[1]; at MCC50, figure 5",72
same,tlag_MCC50,"[1]; at MCC50, figure 5",24
same,MCCE,[1]; figure 5,1.852
same,MCC50,"[1]; figure 5, in µM",1.852
same,ME_24h (%),[1],12.0%
same,ME_48h (%),[1],63.1%
same,ME_72h (%),[1],72.3%
same,"ME 24h (maximum effect at 24 hours, intracellular amastigotes)",[1],11.982%
same,CYP51 pIC50,TcCYP51,4.6
same,Trypomastigotes pIC50 48 hours,[2],< 4.3
same,Trypomastigotes pIC50 72 hours,[2],< 4.3
same,"72 pIC50 (trypomastigotes, raw data of Fig 1D)",[2],< 4.3
same,48 pIC50,[2]; figure 1A,< 4.3
same,72 pIC50,[2]; figure 1A,< 4.3
same,72 pIC50,[2]; figure 1B,< 4.3
Cc1[nH]nc2c1C(c1ccc(OCc3ccccc3F)cc1)SCC(=O)N2 (stereo not drawn) [TCMDC-143328],ME_24h,[1]; figure 5,2.825
same,ME_48h,[1]; figure 5,-7.539
same,ME_72h,[1]; figure 5,-52.7101
same,MCCE,[1]; RoK curve descriptor,5.6 µM
same,AM/CELL NORM,[1]; Time 4,25.0577
same,AM/CELL NORM,[1]; Time 24,-15.4729
same,AM/CELL NORM,[1]; Time 48,-7.539
same,AM/CELL NORM,[1]; Time 72,-52.7101
same,tlag_Cmax,[1],24.0 h
same,t50pct_Cmax,[1]; figure 5,72
same,tlag_Cmax,[1]; figure 5,24
same,t50pct_MCC50,"[1]; at MCC50, figure 5",72
same,tlag_MCC50,"[1]; at MCC50, figure 5",72
same,MCC50,[1]; figure 5,50 µM
same,MCCE,[1]; figure 5,5.556
same,ME_24h (%),[1],2.8%
same,ME_48h (%),[1],-7.5%
same,ME_72h (%),[1],-52.7%
same,"ME 24h (maximum effect at 24 hours, intracellular amastigotes)",[1],2.825%
same,CYP51 pIC50,TcCYP51,< 4
same,Trypomastigotes pIC50 48 hours,[2],5.1
same,Trypomastigotes pIC50 72 hours,[2],5.1
same,"72 pIC50 (trypomastigotes, raw data of Fig 1D)",[2],5.1
same,48 pIC50,[2]; figure 1A,5.1
same,72 pIC50,[2]; figure 1A,5.1
same,72 pIC50,[2]; figure 1B,5.1
CCOc1cnn(C)c(=O)c1Nc1ccc(C(=O)NCc2ccc(F)cc2)cc1 [TCMDC-143319],ME_24h,[1]; figure 5,-74.4049
same,ME_48h,[1]; figure 5,-82.6884
same,ME_72h,[1]; figure 5,13.1125
same,MCCE,[1]; RoK curve descriptor,0.2 µM
same,AM/CELL NORM,[1]; Time 4,-4.52
same,AM/CELL NORM,[1]; Time 24,-105.903
same,AM/CELL NORM,[1]; Time 48,-82.6884
same,AM/CELL NORM,[1]; Time 72,-13.3312
same,tlag_Cmax,[1],24.0 h
same,t50pct_Cmax,[1]; figure 5,72
same,tlag_Cmax,[1]; figure 5,24
same,t50pct_MCC50,"[1]; at MCC50, figure 5",72
same,tlag_MCC50,"[1]; at MCC50, figure 5",72
same,MCC50,[1]; figure 5,50 µM
same,MCCE,[1]; figure 5,0.2058
same,ME_24h (%),[1],-74.4%
same,ME_48h (%),[1],-82.7%
same,ME_72h (%),[1],13.1%
same,"ME 24h (maximum effect at 24 hours, intracellular amastigotes)",[1],-74.4049%
same,CYP51 pIC50,TcCYP51,5.4
same,Trypomastigotes pIC50 48 hours,[2],< 4.3
same,Trypomastigotes pIC50 72 hours,[2],< 4.3
same,"72 pIC50 (trypomastigotes, raw data of Fig 1D)",[2],< 4.3
same,48 pIC50,[2]; figure 1A,< 4.3
same,72 pIC50,[2]; figure 1A,< 4.3
same,72 pIC50,[2]; figure 1B,< 4.3
